Experimental data: patent US12403167B2, “Phenylethanoid glycoside extract from Acanthus ilicifolius L., preparation method thereof and use as anti-liver injury medicament” (OCEAN UNIVERSITY OF CHINA, priority 2019, dated 2025)

Experiments:
[1] = test system: L-02 hepatocytes; assay: CCl4-induced L-02 hepatocyte damage, CCK-8 cell viability; format: cell-based; conditions: 20 μg/mL, 15 mM CCl4, 24 h, CCl4 model group 24.22±0.33%
Protocol: L-02 hepatocytes were provided by the China Center for Type Culture Collection (CCTCC). The L-02 hepatocytes were cultured in a medium containing 1640 complete culture medium and DMEM complete medium with 5% CO2 at a constant temperature (37° C.). The cells were harvested in the exponential growth phase. A suspension of 1×10^6 cells/mL was prepared, and then 100 μL of this suspension was added to each well of a 96-well plate with tested medium. The groups were divided into: normal group, negative control group, CCl4 model group, positive group (silybin), and high-, medium-, and low-dosage APhGs groups. After incubation for 24 h, the cells in the experimental group and the positive group were treated with different concentrations of APhGs and silybin. Both the CCl4 model group and the negative control group were added with the same amount of DMSO. Each treatment was repeated five times. […]
Determination of cell viability: 10 μL of CCK8 was added to each well to incubate at 37° C. for 2 h. The culture plates were measured with a microplate reader to obtain the absorbances at 450 nm. The cell viability values were calculated by the following formula: Cell viability (%)=(ODsample−ODblank)×100/(ODcontrol−ODblank)
ODsample was the absorbance of the experimental group, ODcontrol was the absorbance of the negative control group, ODblank was the absorbance of the blank control.

[2] = test system: CCl4-induced acute liver injury mice; assay: SOD and MDA in liver tissue homogenate of CCl4-induced liver injury mice; format: in vivo; conditions: 150 mg/kg once/d for 3 days before CCl4; liver 8 h after CCl4; n = 8, x ± s
Protocol: Forty eight C57 mice (20-22 g) of both genders were supplied by the Experimental Animal Center of Hubei Province, China (NO. 42000600033017). The above 48 mice were randomly divided into 6 groups (8 mice each group), and the phenylethanoid glycoside extract of the present disclosure (the phenylethanoid glycoside group, APhGs) were intraperitoneally injected with the doses of 300 mg/kg (high dose group), 150 mg/kg (medium dose group), and 75 mg/kg (low dose group). The positive group was given silybin (150 mg/kg), and the normal group, as well as model group was given normal saline. All groups were treated as above once/d for 3 consecutive days. Two hours after the last administration, the normal group was intraperitoneally injected with 15 μL of olive oil/mouse, and the other groups were intraperitoneally injected with 15 μL of 50% CCl4 (diluted with olive oil 1:1)/mouse. Eight hours later, all the mice were anesthetized. […]
The detection of SOD and MDA of liver homogenate samples from each group mice were conducted according to the instructions of ELISA kit for SOD and MDA. The OD values of liver SOD at 550 nm and MDA at 532 nm were obtained by a microplate reader, respectively. The SOD and MDA enzyme activities were calculated based on the OD values. […]

[3] = test system: CCl4-induced acute liver injury mice; assay: Serum ALT, AST, SOD and MDA in CCl4-induced liver injury mice; format: in vivo; conditions: 150 mg/kg once/d for 3 days before CCl4; blood 8 h after CCl4; n = 8, x ± s
Protocol: Forty eight C57 mice (20-22 g) of both genders were supplied by the Experimental Animal Center of Hubei Province, China (NO. 42000600033017). The above 48 mice were randomly divided into 6 groups (8 mice each group), and the phenylethanoid glycoside extract of the present disclosure (the phenylethanoid glycoside group, APhGs) were intraperitoneally injected with the doses of 300 mg/kg (high dose group), 150 mg/kg (medium dose group), and 75 mg/kg (low dose group). The positive group was given silybin (150 mg/kg), and the normal group, as well as model group was given normal saline. All groups were treated as above once/d for 3 consecutive days. Two hours after the last administration, the normal group was intraperitoneally injected with 15 μL of olive oil/mouse, and the other groups were intraperitoneally injected with 15 μL of 50% CCl4 (diluted with olive oil 1:1)/mouse. Eight hours later, all the mice were anesthetized. Then blood was collected by cardiac puncture, and liver tissue was collected for testing biochemical indexes and making pathological sections.
The detection of alanine aminotransferase (ALT) and aspartate aminotransferase (AST) of serum samples from each group mice were conducted according to the instructions of ELISA kit for ALT and AST. The absorbances (OD values) of serum ALT and AST at 450 nm were obtained by a microplate reader. The ALT and AST enzyme activities were calculated based on the OD values.
The detection of superoxide dismutase (SOD) and malondialdehyde (MDA) of serum samples from each group of mice were conducted according to the instructions of ELISA kit for SOD and MDA. The OD values of serum SOD at 550 nm and MDA at 532 nm were obtained by a microplate reader, respectively. The SOD and MDA enzyme activities were calculated based on the OD values.
Immunohistochemical analysis software: Image-pro plus 6.0 (Media Cybernetics, Inc., Rockville, MD, USA); experimental data statistical software: GraphPad Prism 7. The results were represented by mean values ±standard deviation (x±s). The difference P<0.05 meant statistically significant.

COc1cc(C2Oc3cc([C@H]4Oc5cc(O)cc(O)c5C(=O)[C@@H]4O)ccc3OC2CO)ccc1O (stereo partly shown) [Positive group, silybin]
cell survival rate [1]: 35.92±2.15% | liver tissue MDA [2]: 0.56 ± 0.08 nmol/mg prot | liver tissue SOD [2]: 610.91 U/mg prot | serum ALT [3]: 736.27 U/L | serum AST [3]: 776.68 U/L | serum MDA [3]: 8.32 µM | serum SOD [3]: 743.47 U/mL
